Like-named read-outs stand apart in the source and are kept apart here.
How the values were obtained:
[1] = system: NCl-H82 (small cell lung cancer); experiment: Antiproliferative assay on NCl-H82 cells (AlamarBlue, 120 h); type: cell-based; settings: mean value from several measurements
Procedure: The antiproliferative activity of CDK7 inhibitors according to the present invention was evaluated in a cell test using continuous cell cultures: MDA-MB-468 (triple negative breast cancer, ATCC® HTB-132™) and NCl-H82 (small cell lung cancer, ATCC® HTB-175™) using a viable AlamarBlue dye (Thermo Fisher Scientific Inc, order no. DAL1100). The cells were grown in DMEM (PanEco, order no. C330π) and RPMI-1640 (PanEco, order no. C330π), respectively. The basal growth medium was enriched with L-glutamine at a concentration of 2 mM (PanEco, order no. Φ032) and 10% fetal bovine serum (Gibco, order no. 16140-071). The night before measurement, MDA-MB-468 adherent cells were detached from plastic with a solution of trypsin-EDTA (PanEco, order no. Π039π), the solution was then inactivated by a DMEM complete medium, centrifuged at 1000 RPM (Eppendorf, 5804 R), a suspension of cells was prepared in a DMEM complete medium, introduced into 96-well culture plates (Corning Inc, order no. 3599) at 8×10^3 cells in 100 μl of medium per well. The next day, test compounds were dissolved in DMSO and diluted with a DMEM complete medium to a final concentration ranging from 50 μM to 10 pM. Diluted compounds in a volume of 50 μl were introduced into the plate wells with cells in triplicates (the final concentration of DMSO was no more than 1%) and incubated at 37° C. in an incubator with 5% CO2 for 96 hours. NCl-H82 suspension cell line was prepared on the day of the analysis. 10×10^3 cells in 100 μl of an RPMI-1640 complete medium were added to each well of a 96-well plate. The procedure for sample dilution is as described above. Cells with test compounds were incubated at 37° C. in an incubator with 5% CO2 for 120 hours. Following incubation, […] of AlamarBlue reagent (Thermo Fisher Scientific Inc., order no. DAL1100) was added to the wells, the contents of the plates were stirred in an orbital shaker (Biosan, Latvia), then further incubated for 5.5-6 hours at 37° C. in an incubator with 5% CO2. The number of viable cells was detected using the Infinite M200Pro microplate spectrophotometer (Tecan Group Ltd, Switzerland) by way of measuring a fluorescent signal at an excitation wavelength (λEx) of 540 nm and an emission wavelength (λEm) of 590 nm.
IC50 value was calculated using the Magellan software (Tecan Group Ltd, Switzerland) by approximating experimental points by four-parameter model with the optimization by Levenberg-Marquardt: […]

[2] = system: MDA-MB-468 (triple negative breast cancer); experiment: Antiproliferative assay on MDA-MB-468 cells (AlamarBlue, 96 h); type: cell-based; settings: Homo sapiens, mean value from several measurements
CDK7/Cyclin H/MNAT1 = CDK7/Cyclin H/MNAT1 (Homo sapiens, UniProt P50613); experiment: Inhibition of CDK7/Cyclin H/MNAT1 kinase activity (ADP-Glo); type: biochemical
Chain of CDK7/Cyclin H/MNAT1 (P50613 whole entry): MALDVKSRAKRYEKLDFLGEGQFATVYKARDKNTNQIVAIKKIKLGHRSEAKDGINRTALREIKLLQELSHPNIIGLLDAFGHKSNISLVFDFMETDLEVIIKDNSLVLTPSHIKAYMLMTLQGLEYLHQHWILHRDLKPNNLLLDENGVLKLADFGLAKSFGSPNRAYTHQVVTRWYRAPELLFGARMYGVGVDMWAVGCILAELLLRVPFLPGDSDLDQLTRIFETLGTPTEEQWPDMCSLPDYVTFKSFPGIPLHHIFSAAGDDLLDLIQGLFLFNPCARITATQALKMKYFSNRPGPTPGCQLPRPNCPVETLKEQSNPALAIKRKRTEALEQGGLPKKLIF
Chain of CDK7/Cyclin H/MNAT1 (P51946 whole entry partner): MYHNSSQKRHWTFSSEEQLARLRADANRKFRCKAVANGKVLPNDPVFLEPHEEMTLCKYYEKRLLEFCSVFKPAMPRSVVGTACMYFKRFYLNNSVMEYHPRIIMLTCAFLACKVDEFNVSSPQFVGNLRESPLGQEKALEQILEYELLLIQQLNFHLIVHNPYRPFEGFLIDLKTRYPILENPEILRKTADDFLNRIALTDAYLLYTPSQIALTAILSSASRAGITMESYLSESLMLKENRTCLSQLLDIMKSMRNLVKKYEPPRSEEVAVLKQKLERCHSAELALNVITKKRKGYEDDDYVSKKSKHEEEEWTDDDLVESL
Chain of CDK7/Cyclin H/MNAT1 (P51948 whole entry partner): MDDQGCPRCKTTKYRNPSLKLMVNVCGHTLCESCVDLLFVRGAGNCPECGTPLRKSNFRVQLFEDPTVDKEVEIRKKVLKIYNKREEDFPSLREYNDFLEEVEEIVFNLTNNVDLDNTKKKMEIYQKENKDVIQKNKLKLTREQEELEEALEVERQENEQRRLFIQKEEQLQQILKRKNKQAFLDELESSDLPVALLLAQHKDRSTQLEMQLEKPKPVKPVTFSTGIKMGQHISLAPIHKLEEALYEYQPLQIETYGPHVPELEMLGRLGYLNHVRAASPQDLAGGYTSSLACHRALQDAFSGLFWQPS
Outline: (§1)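 ADP-Glo luminescence quantified ATP consumption after a 40-60 minute, 25° C. reaction with ATP plus CDKtide, Histone H1 or PDKtide, following a 10-minute compound–kinase preincubation in DTT-supplemented kinase buffer A. Compounds spanned 11 concentrations from 50 μM in 4-fold dilutions; IC50 fitted to a four-parameter model.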

[3] = General cytotoxicity on primary differentiated HepaRG cells (72 h); type: cell-based; settings: human, general toxicity, mean value from several measurements
Outline: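 Test compounds spanning 200 μM to 0.2 nM were incubated for 72 hours with primary differentiated HepaRG cells. Cells had been kept one week in supplemented hepatic medium and seeded the night before at 25×10^3 per well, and viability was then measured.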

CDK2/Cyclin A = CDK2/Cyclin A (Homo sapiens, UniProt P24941); experiment: Inhibition of CDK2/Cyclin A kinase activity (ADP-Glo); type: biochemical
Outline: as §1

CDK9/Cyclin K = CDK9/Cyclin K (Homo sapiens, UniProt P50750); experiment: Inhibition of CDK9/Cyclin K kinase activity (ADP-Glo); type: biochemical
Chain of CDK9/Cyclin K (P50750 whole entry): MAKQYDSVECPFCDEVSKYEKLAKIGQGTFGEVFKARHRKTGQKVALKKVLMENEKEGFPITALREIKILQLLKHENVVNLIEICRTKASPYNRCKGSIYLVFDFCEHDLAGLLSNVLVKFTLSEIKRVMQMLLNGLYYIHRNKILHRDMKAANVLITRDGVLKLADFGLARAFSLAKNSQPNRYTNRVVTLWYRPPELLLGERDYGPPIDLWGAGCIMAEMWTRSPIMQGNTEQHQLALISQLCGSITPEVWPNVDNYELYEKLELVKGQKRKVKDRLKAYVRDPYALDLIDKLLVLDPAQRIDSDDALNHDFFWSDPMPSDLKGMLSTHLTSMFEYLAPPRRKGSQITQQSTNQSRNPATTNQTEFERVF
Chain of CDK9/Cyclin K (O75909 whole entry partner): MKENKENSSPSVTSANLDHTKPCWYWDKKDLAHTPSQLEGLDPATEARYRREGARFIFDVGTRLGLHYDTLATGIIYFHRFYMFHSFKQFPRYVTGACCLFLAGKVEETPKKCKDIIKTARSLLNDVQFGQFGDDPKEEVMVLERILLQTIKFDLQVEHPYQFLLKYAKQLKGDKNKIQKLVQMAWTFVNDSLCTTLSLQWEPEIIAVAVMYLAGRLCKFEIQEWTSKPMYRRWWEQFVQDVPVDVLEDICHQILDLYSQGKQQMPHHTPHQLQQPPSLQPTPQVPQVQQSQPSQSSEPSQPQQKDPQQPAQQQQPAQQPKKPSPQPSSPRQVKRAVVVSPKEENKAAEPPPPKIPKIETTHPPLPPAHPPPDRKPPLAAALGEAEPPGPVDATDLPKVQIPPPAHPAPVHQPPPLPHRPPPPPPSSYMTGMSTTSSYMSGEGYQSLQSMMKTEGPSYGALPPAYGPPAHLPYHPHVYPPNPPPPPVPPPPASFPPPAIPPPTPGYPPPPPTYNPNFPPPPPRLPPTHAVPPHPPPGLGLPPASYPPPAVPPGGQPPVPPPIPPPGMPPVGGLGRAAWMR
Outline: as §1

[4] = Passive membrane permeability through PAMPA artificial membrane, pH 7.4; type: in vitro ADME; settings: pH 7.4, 10 μmol, 20 hours at room temperature, mean of multiple measurements, read-out: PAMPA passive permeability Pe
Procedure: Passive membrane permeability of the compounds described in the present invention was determined using the PAMPA (parallel artificial membrane permeability assay) model at pH 7.4.
We used a 96-well plate (Corning® BioCoat® Pre-coated PAMPA Plate System, order no. 353015), composed of acceptor and donor parts with cell membrane-modeling PVDF filter pre-impregnated with a lecithin-phospholipid bilayer. The substance (at a concentration of 10 μmol) in a 0.01 M phosphate buffer with pH 7.4 was introduced into a donor well of the plate, and pure buffer was introduced into an acceptor well; afterwards, the both parts were combined and incubated for 20 hours at room temperature so that the compound was redistributed between the two wells and the membrane. Verapamil (USP, USA, order no. 1711202) and propranolol (MCE LLC, USA, cat. no. HY-B0573/CS-2680) were used as control compounds with high and medium permeability. Samples were analyzed by reversed-phase HPLC with UV detection (Agilent 1260 chromatograph with UV detector) by determining their peak areas in the donor and acceptor wells.
Permeability (Pe, cm/s) and retention factor (R, %) in the lipid bilayer were calculated using the formula:
[formula] [formula] • Co is donor-well concentration of the substance at the initial moment of time t (μM); • CA (t) is acceptor-well concentration of the substance at time t (μM); • Vd is donor-well volume (0.3 ml); • Va is acceptor-well volume (0.15 ml).
[formula] • A is filter area (0.3 cm^2); • t is incubation time (72000 s);

[5] = mean value from several measurements, read-out: IC50 CDK7/Cyclin H/MNAT
[6] = mean value from several measurements, read-out: IC50 CDK2/Cyclin A
[7] = mean value from several measurements, read-out: IC50 CDK9/Cyclin K

Structure (SMILES) | IC50 [1] [nM] | IC50 [2] [nM] | IC50 (CDK7/Cyclin H/MNAT1; [5]) [nM] | CC50 at 72 h [3] [nM] | IC50 (CDK2/Cyclin A; [6]) [nM] | IC50 (CDK9/Cyclin K; [7]) [nM] | Papp at 20 h, 10 μmol [4] [×10⁻⁶ cm/s] | IC50 (CDK7/Cyclin H/MNAT1; mean of multiple measurement series, ATP 10 μM, read-out: CDK7/Cyclin H/MNAT1 IC50) [nM] | IC50 (CDK2/Cyclin A; mean of multiple measurement series, ATP 50 μM, read-out: CDK2/Cyclin A IC50) [nM] | IC50 (CDK9/Cyclin K; mean of multiple measurement series, ATP 50 μM, read-out: CDK9/Cyclin K IC50) [nM]
CCOC(=O)c1cc(-c2nc(N[C@H]3CCCNC3)ncc2C(F)(F)F)c[nH]1 [CDK7_1020, ethyl 4-(2-{[(3S)-piperidin-3-yl]amino}-5-(trifluoromethyl)py-rimidin-4-yl)-1H-pyrrole-2-carboxylate] | 10 to 100 | 10 to 100 | < 5 | > 2000 | > 200 | 5 to 50 |  |  |  | 
Cn1cc(NC(=O)c2cc(-c3nc(N[C@H]4CCCNC4)ncc3C(F)(F)F)c[nH]2)cn1 [CDK7_835, N-(1-methyl-1H-pyrazol-4-yl)-4-(2-{[(3S)-piperidin-3-yl]amino}-5-(trifluoromethyl)pyrimidin-4-yl)-1H-pyrrole-2-carboxamide] |  | 100 to 1000 | 5 to 50 | > 2000 | > 200 | 5 to 50 | < 1 |  |  | 
Cc1ccc(Nc2nc(N[C@H]3CCCNC3)ncc2C(F)(F)F)c(P(C)(C)=O)c1 [CDK7_904, N4-[2-(dimethylphos-phoryl)-4-methylphenyl]-N2-[(3S)-piperidin-3-yl]-5-(trifluoromethyl) pyrimidine-2,4-diamine] |  | 100 to 1000 | < 5 | > 2000 | > 200 | 5 to 50 | < 1 |  |  | 
Cc1nnc2n1CCCc1c(-c3nc(N[C@H]4CCCNC4)ncc3C(F)(F)F)c[nH]c1-2 [CDK7_1236, 4-{5-methyl-3,4,6,13-tetraazatricyclo[8.3.0.0^2,^6]trideca-1(10),2,4,11-tetraen-11-yl}-N-[(3S)-piperidin-3-yl]-5-(trifluoromethyl)py-rimidin-2-amine] | 10 to 100 | 10 to 100 | < 5 | > 2000 | > 200 | 50 to 200 |  |  |  | 
Nc1ccccc1Oc1nc(N[C@H]2CCCNC2)ncc1C(F)(F)F [CDK7_548, 4-(2-aminophenoxy)-N-[(3S)-piperidin-3-yl]-5-(trifluoromethyl) pyrimidin-2-amine] |  | 10 to 100 | 5 to 50 | 500 to 2000 | > 200 | 5 to 50 | 1 to 5 |  |  | 
FC(F)(F)c1cnc(N[C@H]2CCCNC2)nc1-c1c[nH]c(-c2ccccc2)c1 [CDK7_533, 4-(5-phenyl-1H-pyrrol-3-yl)-N-[(3S)-piperidin-3-yl]-5-(trifluoromethyl) pyrimidin-2-amine] |  | 100 to 1000 | 50 to 200 | 500 to 2000 | > 200 | > 200 | < 1 |  |  | 
O=C(NC1CC1)c1cc(-c2nc(N[C@H]3CCCNC3)ncc2C(F)(F)F)c[nH]1 [CDK7_951, N-cyclopropyl-4-(2-{[(3S)-piperidin-3-yl]amino}-5-(trifluoromethyl)pyrimidin-4-yl)-1H-pyrrole-2-carboxamide] |  | 10 to 100 | < 5 | 500 to 2000 | > 200 | 5 to 50 | < 1 |  |  | 
CN(C)C(=O)c1cc(-c2nc(N[C@H]3CCCNC3)ncc2C(F)(F)F)c[nH]1 [CDK7_536, N,N-dimethyl-4-(2-{[(3S)-piperidin-3-yl]amino}-5-(trifluoromethyl)pyrimidin-4-yl)-1H-pyrrole-2-carboxamide] |  | 10 to 100 | < 5 | 500 to 2000 | > 200 | 5 to 50 | 1 to 5 |  |  | 
Cn1cc(-n2ccc3c(-c4nc(N[C@H]5CCC6(CC6)NC5)ncc4C(F)(F)F)c[nH]c3c2=O)cn1 [CDK7_1199, 3-(2-{[(6S)-4-azaspiro[2.5]octan-6-yl]amino}-5-(trifluoromethyl)py-rimidin-4-yl)-6-(1-methyl-1H-pyrazol-4-yl)-1H,6H,7H-pyrrolo[2,3-c]pyridin-7-one] | < 10 | < 10 | < 5 |  | > 200 | > 200 |  | < 5 | 3390 | 843
CP(C)(=O)c1ccccc1Nc1nc(N[C@H]2CCCNC2)ncc1C(F)(F)F [CDK7_735, N4-[2-(dimethylphos-phoryl)phenyl]-N2-[(3S)-piperidin-3-yl]-5-(trifluoromethyl) pyrimidine-2,4-diamine] |  | 100 to 1000 | < 5 | > 2000 | > 200 | 5 to 50 | < 1 |  |  | 
CN1Cc2c(-c3nc(N[C@H]4CCCNC4)ncc3C(F)(F)F)c[nH]c2C1=O [CDK7_944, 5-methyl-3-(2-{[(3S)-piperidin-3-yl]amino}-5-(trifluoromethyl)pyrimidin-4-yl)-1H,4H,5H,6H-pyrrolo[2,3-c]pyrrol-6-one] |  | < 10 | < 5 | < 100 | > 200 | 5 to 50 | < 1 |  |  | 
COCCN1CCCc2c(-c3nc(N[C@H]4CCC(C)(C)NC4)ncc3C(F)(F)F)c[nH]c2C1=O [CDK7_1268, 3-(2-{[(3S)-6,6-dimethylpiperidin-3-yl]amino}-5-(trifluoromethyl)py-rimidin-4-yl)-7-(2-methoxyethyl)-1H,4H,5H,6H,7H, 8H-pyrrolo[2,3-c]azepin-8-one] | 10 to 100 | 10 to 100 |  | > 2000 | > 200 | > 200 |  |  |  | 

From patent US20260137698A1, “CYCLIN-DEPENDENT KINASE 7 INHIBITORS” (JOINT STOCK COMPANY «BIOCAD», priority 2022, published 2026)
